The values that follow come from patent publication US20240116962A1, “PYRIDINE-2-AMINE DERIVATIVE AND PHARMACEUTICAL COMPOSITION AND USE THEREOF” (TSINGHUA UNIVERSITY, priority 2020, published 2024).

One assay deals with T1, hTLR8 (Homo sapiens, UniProt Q9NR97).
T1 construct: host or cells: HEK-Blue hTLR8 (HEK293-derived reporter cells with SEAP read-out)
T1 sequence (Q9NR97 27-1041): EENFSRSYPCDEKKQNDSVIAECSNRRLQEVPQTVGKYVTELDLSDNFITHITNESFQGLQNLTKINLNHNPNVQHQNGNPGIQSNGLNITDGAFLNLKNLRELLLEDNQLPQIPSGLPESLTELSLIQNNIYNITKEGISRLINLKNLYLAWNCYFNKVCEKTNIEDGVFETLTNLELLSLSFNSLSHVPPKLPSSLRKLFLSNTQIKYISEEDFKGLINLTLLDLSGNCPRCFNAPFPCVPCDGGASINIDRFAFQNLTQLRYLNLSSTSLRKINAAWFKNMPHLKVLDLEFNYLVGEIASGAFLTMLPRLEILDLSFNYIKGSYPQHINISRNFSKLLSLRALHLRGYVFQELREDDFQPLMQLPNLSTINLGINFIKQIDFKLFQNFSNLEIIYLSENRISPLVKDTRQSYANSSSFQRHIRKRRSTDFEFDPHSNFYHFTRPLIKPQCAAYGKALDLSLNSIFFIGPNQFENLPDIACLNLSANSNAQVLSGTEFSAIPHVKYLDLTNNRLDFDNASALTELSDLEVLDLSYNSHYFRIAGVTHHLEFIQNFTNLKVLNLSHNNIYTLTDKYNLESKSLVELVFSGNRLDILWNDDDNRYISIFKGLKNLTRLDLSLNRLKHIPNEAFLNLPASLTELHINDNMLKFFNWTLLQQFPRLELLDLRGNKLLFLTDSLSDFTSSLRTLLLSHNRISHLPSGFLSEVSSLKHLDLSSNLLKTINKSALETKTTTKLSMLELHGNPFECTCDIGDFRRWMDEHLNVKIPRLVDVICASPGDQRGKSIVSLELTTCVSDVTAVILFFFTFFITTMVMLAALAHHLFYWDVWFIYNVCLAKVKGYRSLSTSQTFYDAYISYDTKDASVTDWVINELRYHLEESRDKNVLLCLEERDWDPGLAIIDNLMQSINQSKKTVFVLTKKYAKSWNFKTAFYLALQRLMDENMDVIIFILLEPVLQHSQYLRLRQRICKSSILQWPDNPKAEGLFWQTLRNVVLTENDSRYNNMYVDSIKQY
In words: EC50 assay for small molecule agonists, HEK-Blue hTLR8 cells, SEAP readout. It is filed as cell-based. As for the experimental part: (§1) Reagents used for cell culture and detection for HEK-Blue™ hTLR7, HEK-Blue™ hTLR8 and control HEK-Blue Nu112k were as follows: DMEM (4.5 g/L glucose), bovine serum FBS, streptomycin ([…]), penicillin (50 U/mL), Blasticidin (10 mg/mL), Zeocin™ (10 mg/mL), Normocin (50 mg/mL), and HEK-Blue™ Detection. Basal medium was as follows: DMEM +10% FBS+streptomycin+penicillin+Normocin ([…]); selective medium for resistance genes was as follows: DMEM+10% FBS+streptomycin+penicillin+Normocin (1001 μg/mL)+Blasticidin (1001 μg/mL)+Zeocin™ (1001 μg/mL).
(§2) Cell preparation: HEK-Blue™ hTLR7 and HEK-Blue™ hTLR8 cell lines were purchased from Invivogen. The cells frozen in liquid nitrogen were taken, quickly placed in a water bath at 37° C., shaken occasionally, and completely melted within 1 min. The cells were transferred to 15 mL of pre-heated basal medium and resuspended; centrifuged at 1,000 r/min for 5 min, supernatant discarded; resuspended with 1 mL of basal medium, transferred to a T25 culture flask, supplemented to 5 mL with the medium, and incubated in an incubator at 37° C.; after stable passage twice, and subjected to selective antibiotic screening: HEK-Blue™ hTLR7 or HEK-Blue™ hTLR8: 100 μg/mL Zeocin+Blasticidin (30 μg/mL), HEK-Blue Nu112-k: 100 μg/mL Zeocin. The fluid was changed 3 times a week. When the number of cells reached 70%-80%, PBS was added, and the cells were exfoliated by gently pipetting.
(§3) Activity assay steps: (1) adding a test sample to a 96-well plate at 20 μL/well (triplicate wells were set); (2) adding 20 μL of positive control (e.g., R848), and adding 20 μL of negative control (e.g., ddH2O); (3) removing a T75 culture flask from the incubator, discarding the medium, adding 5-10 mL of pre-heated PBS, and gently pipetting the cells; adding 2-5 mL of PBS to the culture flask, incubating the culture flask in the incubator for 1-2 min, and then gently pipetting the cells to make them exfoliated; (4) mixing the mixture well, and counting the cells, without centrifugation; resuspending the cells with HEK-Blue™ assay solution and adjusting the cell number, taking care not to incubate for a long time to avoid too deep background or false positive. HEK-Blue hTLR cell number was about 2.2×10^5/mL, 180 μL/well (about 40000 cells), and HEK-Blue Nu112-k cell number was about 2.8×10^5/mL, 180 μL/well (about 50000 cells). (5) incubating the cells in the incubator at 37° C. for 6-16 h, and detecting at 620-655 nm for SEAP readings.
(§4) Effect %=(mean OD of the administration group−mean OD of the H2O group at each concentration)/(mean ODmax of the positive drug group−mean OD of the H2O group)×100. EC50 was calculated by fitting Lg [concentration]-effect curves using GraphPad Prism5 software.
(§5) Experimental results: the concentration for 50% of maximal effect (EC50) refers to a corresponding concentration of small molecules that can cause 50% of the maximal agonistic effect. […] EC50 represents a potency for agonizing the TLR8 receptor, with smaller values indicating better efficacy. […] In the following table, the unit of the agonist activity is nanomole, unless otherwise specified.

A further assay concerns the target T2, hTLR7 (Homo sapiens, UniProt Q9NYK1).
T2 construct: host or cells: HEK-Blue hTLR7 (HEK293-derived reporter cells with SEAP read-out)
T2 sequence (Q9NYK1 27-1049): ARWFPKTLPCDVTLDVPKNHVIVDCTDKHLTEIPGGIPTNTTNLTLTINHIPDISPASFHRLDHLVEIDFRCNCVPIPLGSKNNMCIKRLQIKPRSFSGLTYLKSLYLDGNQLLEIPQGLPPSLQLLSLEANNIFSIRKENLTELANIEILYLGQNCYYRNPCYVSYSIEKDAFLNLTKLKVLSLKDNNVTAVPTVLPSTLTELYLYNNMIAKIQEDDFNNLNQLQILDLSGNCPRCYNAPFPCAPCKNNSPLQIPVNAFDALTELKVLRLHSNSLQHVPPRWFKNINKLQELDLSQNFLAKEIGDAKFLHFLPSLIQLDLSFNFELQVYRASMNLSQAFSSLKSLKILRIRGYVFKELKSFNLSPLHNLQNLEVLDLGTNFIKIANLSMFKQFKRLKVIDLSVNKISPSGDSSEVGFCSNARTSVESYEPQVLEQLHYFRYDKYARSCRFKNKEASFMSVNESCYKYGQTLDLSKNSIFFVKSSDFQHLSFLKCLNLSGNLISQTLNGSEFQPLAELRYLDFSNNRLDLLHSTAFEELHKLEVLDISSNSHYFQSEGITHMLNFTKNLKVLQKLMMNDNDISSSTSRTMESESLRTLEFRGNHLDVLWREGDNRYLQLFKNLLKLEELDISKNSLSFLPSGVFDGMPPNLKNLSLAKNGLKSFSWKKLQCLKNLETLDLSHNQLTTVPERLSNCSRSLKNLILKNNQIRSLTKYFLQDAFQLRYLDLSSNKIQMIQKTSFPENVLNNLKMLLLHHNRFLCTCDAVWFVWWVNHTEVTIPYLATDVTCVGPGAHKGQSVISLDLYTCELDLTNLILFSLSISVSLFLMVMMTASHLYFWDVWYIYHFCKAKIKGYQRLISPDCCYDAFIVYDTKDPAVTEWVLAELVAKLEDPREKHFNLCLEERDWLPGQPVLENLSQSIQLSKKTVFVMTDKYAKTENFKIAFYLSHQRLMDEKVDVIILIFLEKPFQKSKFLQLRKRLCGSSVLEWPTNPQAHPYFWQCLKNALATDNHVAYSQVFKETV
In words: EC50 assay for small molecule agonists, HEK-Blue hTLR7 cells, SEAP readout. It is filed as cell-based. The following applies: agonist activity. As for the experimental part: as §1, §2, §3, §4, §5

Where [1] appears, read: agonist activity, read-out: hTLR8(EC50).
[2] abbreviates: read-out: concentration for 50% of maximal effect (EC50) hTLR8.

Like-named read-outs stand apart in the source and are kept apart here.

In the case of `CCCCCc1cc(Cc2ccc(CNC)cc2)c(C)nc1N` [Compound N6], the values for the EC50 at hTLR8 (setting [1]) and at hTLR7 (nd = EC50 larger than 25 μM) were 0.084 µM and more than 25 µM, respectively.
Taken in the same sequence, the figures for `CCCCCc1cc(Cc2ccccc2CN)c(C)nc1N` [Compound N37] were more than 4 µM and more than 25 µM.
`CCCCCc1cc(Cc2ccc(CN3CCCCC3)cc2)c(C)nc1N` [Compound N9]: the EC50 on hTLR8 (setting [1]) is 0.054 µM; on hTLR8 (setting [2]) it was 0.04 µM; on hTLR7 (nd = EC50 larger than 25 μM), more than 25 µM.
On to `CCCCNc1cc(Cc2ccc(CN3CCCC3)cc2)c(C)nc1N` [Compound N56], for which the EC50 is 0.028 µM at hTLR8 (setting [1]) and more than 25 µM at hTLR7 (nd = EC50 larger than 25 μM).
Taken in the same sequence, the figures for `COCCCc1cc(Cc2ccc(CN3CCCC3)cc2)c(C)nc1N` [Compound N29] were more than 4 µM and more than 25 µM.
Taken in the same sequence, the figures for `CCCCCc1cc(Cc2ccc(CN3CCN(C)CC3)cc2OC)c(C)nc1N` [Compound N45] were 0.166 µM and more than 25 µM.
The like results for `CCCCCc1cc(Cc2ccccc2CN2CCOCC2)c(C)nc1N` [Compound N36] were, in that order, more than 4 µM and more than 25 µM.
Turning to `CCCCCc1cc(Cc2ccc(CN3CCCC3)cc2OC)c(C)nc1N` [Compound N43], the EC50 on hTLR8 (setting [1]) was 0.102 µM; at hTLR7 (nd = EC50 larger than 25 μM) it was more than 25 µM.
In the case of `CCCCCc1cc(Cc2ccc(C(=O)N3CCOCC3)cc2)c(C)nc1N` [Compound N40], the values for the EC50 on hTLR8 (setting [1]) and at hTLR7 (nd = EC50 larger than 25 μM) were more than 4 µM and more than 25 µM, respectively.
Take `COCCCc1cc(Cc2ccc(CN(C)C)cc2)c(C)nc1N` [Compound N28]: the EC50 was more than 4 µM on hTLR8 (setting [1]) and more than 25 µM at hTLR7 (nd = EC50 larger than 25 μM).
The like results for `CCCCCc1cc(Cc2ccc(C(=O)N3CCN(C)CC3)cc2)c(C)nc1N` [Compound N41] were, in that order, more than 4 µM and more than 25 µM.
Taken in the same sequence, the figures for `CCCCCc1cc(CCc2ccc(CN(C)C)cc2)c(C)nc1N` [Compound N54] were 0.518 µM and more than 25 µM.
Taken in the same sequence, the figures for `CCCCCc1cc(Cc2ccc(CN(C)C)cc2O)c(C)nc1N` [Compound N46] were 0.351 µM and more than 25 µM.
Take `CCCN(CCC)C(=O)C1=Cc2ccc(-c3ccc(C(=O)N4CCCC4)cc3)cc2N=C(N)C1` [VTX2337, reference compound]: the EC50 is 0.102 µM on hTLR8 (setting [2]) and more than 3 µM on hTLR7.
With `CCCCCc1cc(Cc2ccc(CNC3CC3)cc2)c(C)nc1N` [Compound N20], the EC50 on hTLR8 (setting [1]) was 0.13 µM; at hTLR7 (nd = EC50 larger than 25 μM), more than 25 µM.
The like results for `CCCCNc1cc(Cc2ccc(CN3CC4(COC4)C3)cc2)c(C)nc1N` [Compound N57] were, in that order, 0.016 µM and more than 25 µM.
Regarding `CCCCCc1cc(Cc2ccc(CN3CCCCCC3)cc2)c(C)nc1N` [Compound N12], the EC50 was 0.109 µM on hTLR8 (setting [1]) and more than 25 µM on hTLR7 (nd = EC50 larger than 25 μM).
Turning to `CCCCCc1cc(Cc2ccc(CN(C)CC(=O)OC)cc2)c(C)nc1N` [Compound N13], the EC50 at hTLR8 (setting [1]) is 3 µM; at hTLR7 (nd = EC50 larger than 25 μM) it was more than 25 µM.
The like results for `CCCCCc1cc(Cc2ccc(CN(C)C)cc2OC(C)=O)c(C)nc1N` [Compound N50] were, in that order, 0.105 µM and more than 25 µM.
Take `CCCCCc1cc(Cc2ccc(CN3CC[C@@H](O)C3)cc2)c(C)nc1N` [Compound N19]: the EC50 at hTLR8 (setting [1]) is 0.104 µM; on hTLR7 (nd = EC50 larger than 25 μM), more than 25 µM.
Taken in the same sequence, the figures for `CCCCCc1cc(Cc2ccc(CN3CCOCC3)cc2O)c(C)nc1N` [Compound N48] were more than 4 µM and more than 25 µM.
The like results for `CCCCCc1cc(Cc2ccc(CN(C)C)cc2OC(=O)CC(C)C)c(C)nc1N` [Compound N52] were, in that order, 0.252 µM and more than 25 µM.
The like results for `CCCCCc1cc(Cc2ccc(CN3CC4(COC4)C3)cc2F)c(C)nc1N` [Compound N24] were, in that order, 0.113 µM and more than 25 µM.
As for `CCCCCc1cc(Cc2ccc(C(=O)N(C)C)cc2)c(C)nc1N` [Compound N38], the EC50 on hTLR8 (setting [1]) was more than 4 µM; at hTLR7 (nd = EC50 larger than 25 μM) it was more than 25 µM.
The like results for `CCCCCc1cc(Cc2ccc(CN(C)CC(=O)O)cc2)c(C)nc1N` [Compound N14] were, in that order, more than 4 µM and more than 25 µM.
Taken in the same sequence, the figures for `CCCCCc1cc(Cc2ccc(CN3CCOCC3)cc2OC)c(C)nc1N` [Compound N44] were 1.13 µM and more than 25 µM.
Taken in the same sequence, the figures for `CCCCCc1cc(Cc2ccccc2CN2CCCC2)c(C)nc1N` [Compound N35] were more than 4 µM and more than 25 µM.
As to `CCCCCc1cc(Cc2ccc(C(=O)N3CCCC3)cc2)c(C)nc1N` [Compound N39], the EC50 was more than 4 µM at hTLR8 (setting [1]) and more than 25 µM on hTLR7 (nd = EC50 larger than 25 μM).
